{"source": "patent US20200268864A1", "about": "“CANCER VACCINE COMPOSITIONS AND METHODS FOR USING SAME TO TREAT CANCER” (Dana-Farber Cancer Institute, Inc., priority 2017, published 2020)", "test_system": "PBM tumors (Trp53−/−; Brca1−/−; c-Myc)", "assay": "Orthotopic PBM tumor allograft growth and survival (bioluminescence)", "type": "in vivo, mouse", "method": "All animal experiments described in this study were performed according to the animal protocols approved by the DFCI Institutional Animal Care and Use Committee. Brca1^loxP/loxP [FVB/N] mice, bearing loxP sites in introns 4 and 13 of the Brca1 gene, and Trp53^loxP/loxP[FVB/N] mice bearing loxP in introns 2 and 10 of the p53 gene, were obtained from Dr. Jos Jonkers's laboratory (Netherlands Cancer Institute, Amsterdam, The Netherlands). These mice were intercrossed through multiple generations to create a colony of homozygous Trp53^loxP/loxP/Brca1^loxP/loxP double conditional knockout mice. Ovaries were harvested from 8-week-old female Trp53^loxP/loxP/Brca1^loxP/loxP mice. The ovaries were washed twice with phosphate-buffered and incubated in DMEM/F12 (Ham's) medium containing collagenase and dispase (stem cell technologies) for 40 min at 37° C. The epithelial cells were pelleted by centrifugation at 800×g and cultured in DMEM/F12 (Life Technologies) supplemented with 4% (vol/vol) FBS, 1% penicillin/streptomycin, 10 ng/mL EGF, 5 μg/mL insulin, 5 Cpg/mL transferrin, and 5 ng/mL sodium selenite. Ovarian surface epithelial (OSE) cells were cultured for 48 hr and then introduced with Adeno-Cre (University of Iowa) and lentiviruses expressing C-Myc gene (Addgene #36980) or control GFP. After two days of infection in vitro, OSE cells are aggregated and implanted into recipient mice. About 5×10^5 OSE cells (Trp53^−/−; Brca1^−/−; c-Myc) were injected into the right ovarian bursal cavities of 6- to 7-week-old female nude mice. In each mouse, the left ovarian bursa was injected with GFP-expressing OSE cells (Trp53^−/−; Brca1^−/−; GFP). PBM (Trp53^−/−; Brca1^−/−; c-Myc) ovarian tumors developed within three to six months after implantation of the genetically engineered OSE cells. The primary ovarian tumors were digested and orthotopically transplanted to FVB/NJ mice. The PPM GEM model (Trp53^−/−; Pten^−/−; c-Myc) was developed with OSE cells isolated from homozygous Trp53^loxP/loxP/Pten^loxP/loxP(FVB/NJ) double conditional knockout mice using the same strategy for generation of the PBM GEM model described above. For histological analysis, tumor pieces were fixed in 10% Formalin overnight and transferred to 70% ethanol. Embedding, sectioning and H&E staining was performed by scientists at the Harvard rodent histopathology core facility. The histological characteristics of high grade ovarian tumor were confirmed by two independent pathologists at Harvard Medical School.\nSingle cells were obtained by digestion of primary ovarian tumors in collagenase buffer and then cultured in MOT media (DMEM/F12, 0.6% FBS, 10 ng/ml EGF, hydrocortisone 1 μg/ml, cholera toxin 1 ng/ml, 100 μg/ml penicillin-streptomycin, 5 μM Y27632). […] The endpoints were determined by tumor burden and ascites. […]", "note": "Entries after “also recorded” stand apart in the source; their conditions may differ."}
{"smiles": "O=C(c1cc(Cc2n[nH]c(=O)c3ccccc23)ccc1F)N1CCN(C(=O)C2CC2)CC1", "note": "[olaparib, Olaparib]", "values": [{"measurement": "tumor growth / tumor progression (tumor burden by bioluminescence)", "setting": "PBM tumor-bearing FVB mice, olaparib 50 mg/kg daily i.p., anti-PD-1 250 μg/mouse i.p. every 3 days", "result": "significantly delayed tumor progression; also recorded: delayed tumor growth; also recorded: effectively inhibit the growth"}, {"measurement": "therapeutic effect of olaparib in Rag1−/− host mice", "setting": "PBM tumors in Rag1−/− vs wild-type FVB mice", "result": "partially abrogated"}, {"measurement": "survival of PBM tumor-bearing mice", "setting": "mouse, in vivo", "result": "significantly prolonged the survival; also recorded: eventually succumbed to the disease"}]}
